{"source": "paper PMC12591163", "about": "“Controllable Generation of Pathogen‐Specific Antimicrobial Peptides Through Knowledge‐Aware Prompt Diffusion Model” (Advanced Science, 2025)", "format_in_all_cases": "cell-based", "key": {"E. coli ATCC 25922": {"system": "E. coli ATCC 25922", "settings": "for antimicrobial activity against E. coli (in words): activity threshold defined as MIC ⩽ 128 µg mL^−1; for MIC against E. coli: ATCC 25922", "procedure": "(§1) 2.3Details of the wet-lab evaluation […]\n(§2) Pathogens used for minimum inhibitory concentration (MIC) measurements included E. coli ATCC 25922 and S. aureus\n(§3) ATCC 25923. Both pathogens were streaked on Luria–Bertani (LB) agar and incubated at 37°C overnight. Individual colonies\n(§4) were then selected from the agar plates and transferred to Mueller–Hinton broth (MHB) (Hopebio, China) for further cultivation.\n(§5) The cultures were shaken at 160 rpm at 37°C overnight. Once the turbidity of the bacterial suspensions reached between 0.4\n(§6) and 0.6 McFarland (MCF), the suspensions were diluted 20-fold with MHB. For the preparation of antimicrobial peptide\n(§7) solutions, chemically synthesized peptides were dissolved in either ultrapure water (Biosharp, China) or dimethyl sulfoxide\n(§8) (DMSO) (Biosharp, China) to achieve a stock concentration of […]. This stock solution was then further diluted with\n(§9) MHB to obtain the concentration gradient of 2 to 512 µg/mL for testing. Subsequently, 200 µL of each peptide dilution was\n(§10) pipetted into 96-well plates, followed by the addition of 10 µL of the diluted bacterial suspension to each well. The plates were\n(§11) incubated at 37°C for 14-20 hours, and MIC values were determined as the lowest peptide concentration at which no bacterial\n(§12) growth was observed. Antimicrobial activity assays were conducted in 96-well plates with […] experimental groups as follows:\n(§13) 1) blank control group, containing 200 µL of MHB without bacterial suspension; 2) bacterial control group, with 200 µL of\n(§14) MHB and 10 µL of bacterial suspension without peptide; 3) peptide treatment groups, consisting of 200 µL of MHB containing\n(§15) varying peptide concentration gradient of 2 to 512 µg/mL along with 10 µL of bacterial suspension. All experiments were\n(§16) conducted in triplicate. The positive (proper growth of bacteria) and negative (sterility) controls were included.\n(§17) The Cell Counting Kit-8 (CCK-8) assay was employed to evaluate the cytotoxicity of peptides against human lung epithelial\n(§18) Beas-2B cells. The cells were seeded at a density of 5× 10^3 cells per 100 µL in 96-well plates and cultured overnight at 37°C\n(§19) with 5% CO2. Subsequently, the cells were treated with 100 µL of F-12K medium (Procell, China) containing the peptide\n(§20) concentration gradient of 4 to 512 µg/mL and incubated for 24 hours. After incubation, 10 µL of CCK-8 solution (Abbkine,\n(§21) China) was added to each well, and the cells were incubated for an additional 4 hours at 37°C. Optical density (OD) at 450 nm\n(§22) was measured using an automated microplate reader (BioTek, USA). Each treatment was performed in six duplicate wells.\n(§23) Cell viability was calculated as the percentage relative to the control, using the formula: Cell viability (%) = [(OD[peptide] -\n(§24) OD[blank]) / (OD[control] - OD[blank])] × 100%.\n(§25) 3.1More landscape for peptide datasets\n(§26) For the diversity of GO terms, the biological process category encompasses 3,430 terms (accounting for 47% of the total terms)\n(§27) and 245,683 peptides (representing 22% of the total peptides); the cellular component category includes 819 terms (11%) and\n(§28) 469,675 peptides (43%); the molecular function category covers 3,017 terms (42%) and 389,436 peptides (35%). In the context\n(§29) of pathogen diversity (Table 1), the Gram-positive group comprises 24 distinct pathogens (accounting for 43% of the total\n(§30) pathogen numbers), and 31,726 peptide terms (representing 49% of the total peptide numbers). The Gram-negative group is\n(§31) characterized by 17 pathogens (constituting 30% of the pathogen diversity), and 28,206 peptide terms (making up 44% of the […]"}, "[1]": {"system": "human lung epithelial Beas-2B cells", "settings": "24 h"}, "S. aureus ATCC 25923": {"system": "S. aureus ATCC 25923", "procedure": "as §1, §2, §3, §4, §5, §6, §7, §8, §9, §10, §11, §12, §13, §14, §15, §16, §17, §18, §19, §20, §21, §22, §23, §24, §25, §26, §27, §28, §29, §30, §31"}}, "note": "Ends that are not written are not given here. Peptide text beside a SMILES is read from it."}
{"molecule": "CC(C)C[C@H](NC(=O)[C@H](Cc1ccc(O)cc1)NC(=O)CNC(=O)[C@H](CO)NC(=O)[C@H](CC(C)C)NC(=O)[C@H](CCCNC(=N)N)NC(=O)[C@H](CCCNC(=N)N)NC(=O)[C@@H](NC(=O)[C@H](Cc1ccccc1)NC(=O)[C@H](CC(C)C)NC(=O)[C@@H](N)Cc1ccccc1)C(C)C)C(=O)N[C@@H](CC(N)=O)C(=O)N[C@@H](Cc1ccc(O)cc1)C(=O)N[C@H](C(=O)N[C@H](C(=O)N[C@@H](CCCNC(=N)N)C(=O)N[C@@H](CS)C(=O)N[C@@H](CCCNC(=N)N)C(=O)N[C@@H](CCCNC(=N)N)C(=O)N[C@@H](Cc1ccccc1)C(=O)N[C@@H](CCCCN)C(=O)N[C@@H](Cc1ccccc1)C(=O)N[C@@H](CS)C(=O)N[C@@H](C)C(=O)O)C(C)C)[C@@H](C)O", "note": "[Pep6] (H-FLFVRRLSGYLNYTVRCRRFKFCA-OH; N-terminus and C-terminus assumed)", "values": [{"measurement": "antimicrobial activity against E. coli (in words)", "setting": "E. coli ATCC 25922", "value": "demonstrated the activity"}]}
{"molecule": "AKRYYWRWFKHWYRFAHG [Pep10]", "values": [{"measurement": "peptide concentration causing 50% cytotoxicity (CC50)", "setting": "[1]", "value": "≥ 256", "unit": "µg/mL"}, {"measurement": "MIC against S. aureus", "setting": "S. aureus ATCC 25923; ATCC 25923", "value": 16, "unit": "µg/mL"}, {"measurement": "antimicrobial activity against S. aureus (in words)", "setting": "S. aureus ATCC 25923; activity threshold defined as MIC ⩽ 128 µg mL^−1", "value": "exhibit antimicrobial activity"}, {"measurement": "antimicrobial activity against E. coli (in words)", "setting": "E. coli ATCC 25922", "value": "exhibit antimicrobial activity"}]}
{"molecule": "KRTSQQRLQRLITVGRFRLW [Pep7]", "values": [{"measurement": "MIC against E. coli", "setting": "E. coli ATCC 25922", "value": "≥ 512", "unit": "µg/mL"}]}
{"molecule": "MARRKPLGKKLRLRAAFK [Pep8]", "values": [{"measurement": "MIC against E. coli", "setting": "E. coli ATCC 25922", "value": "≥ 512", "unit": "µg/mL"}]}
